According to US12497637B1, “Stabilization of tryptamines by denaturing enzymes, optimizing ionization states, and controlling confounding variables” (Convergent Health Sciences LLC, priority 2025, dated 2025):

Experiments:
[1] = Spontaneous dephosphorylation of phosphoryloxytryptamines in 100 millimolar phosphate buffers, 85 degrees Celsius, one hour, HPLC at 220 nanometers
[2] = cited from earlier work
[3] = tested on: phosphatase enzyme; test: Colorimetric assay with a para-nitrophenyl phosphate substrate for residual phosphatase enzyme activity; format: biochemical, Psilocybe cubensis; settings: relative to the water control
Source text: The denaturation of relevant phosphatase enzymes may be assessed, for example, by performing a colorimetric assay with a para-nitrophenyl phosphate substrate. Para-nitrophenyl phosphate comprises a phosphorylated aromatic, which is chemically similar to the phosphorylated indole of a phosphoryloxytryptamine. Colorimetric assays performed with a para-nitrophenyl phosphate substrate therefore provide suitable methods to assess […] that are relevant to this disclosure.
(§1) 20 milliliters of 6 molar guanidinium chloride in distilled, deionized water and buffered to a pH of 6.0 with 50 millimolar phosphate buffer is added to each of three opaque 50-milliliter polypropylene centrifuge tubes. 20 milliliters of 8 molar urea in distilled, deionized water and buffered to a pH of 6.0 with 50 millimolar phosphate buffer is added to each of three opaque 50-milliliter polypropylene centrifuge tubes. 20 milliliters of 4 molar ammonium sulfate in distilled, deionized water and buffered to a pH of 6.0 with 50 millimolar MES buffer is added to each of three opaque 50-milliliter polypropylene centrifuge tubes. 20 milliliters of 2 percent sodium dodecyl sulfate (w/v) in distilled, deionized water and buffered to a pH of 6.0 with 50 millimolar phosphate buffer is added to each of three opaque 50-milliliter polypropylene centrifuge tubes. 20 milliliters of 1 percent Triton X-100 (v/v) in distilled, deionized water and buffered to a pH of 6.0 with 50 millimolar phosphate buffer is added to each of three opaque 50-milliliter polypropylene centrifuge tubes. 20 milliliters of 2 percent octyl glucoside (w/v) in distilled, deionized water and buffered to a pH of 6.0 with 50 millimolar phosphate buffer is added to each of three opaque 50-milliliter polypropylene centrifuge tubes. 20 milliliters of distilled, deionized water is buffered to a pH of 6.0 with 50 millimolar phosphate buffer and added to each of three opaque 50-milliliter polypropylene centrifuge tubes. Each of the centrifuge tubes is placed on ice.
(§2) The stipes of three freshly-harvested Psilocybe cubensis fruiting bodies are each cut into seven sections of approximately 1 gram each, weighed, and immediately placed into one of the polypropylene tubes such that a section of each stipe is placed in each of the guanidinium, urea, ammonium sulfate, sodium dodecyl sulfate, Triton X-100, and octyl glucoside solutions as well as the water control. Each of the samples is homogenized and then sonicated within the polypropylene tubes. The polypropylene tubes are then loaded onto an orbital shaker in a cold room at 4 degrees Celsius and mixed at 450 revolutions per minute for four hours. After mixing, the samples are placed on ice.
(§3) The samples are centrifuged, and the supernatants are analyzed by HPLC as described in Example 1. The molecular weights of the analytes are determined by electrospray ionization mass spectroscopy (ESI-MS) operating in positive ion mode. The supernatants are also used for a colorimetric assay with a para-nitrophenyl phosphate substrate to identify residual phosphatase enzyme activity and for a colorimetric assay with a syringaldazine substrate to identify any residual laccase enzyme activity.

[4] = tested on: laccase enzyme; test: Colorimetric assay with a syringaldazine substrate for residual laccase enzyme activity; format: biochemical, Psilocybe cubensis; settings: relative to the water control
Source text: The denaturation of relevant laccase enzymes may be assessed, for example, by performing a colorimetric assay with a laccase enzyme substrate such as syringaldazine or 2,2′-azino-bis(3-ethylbenzothiazoline-6-sulfonate) (ABTS). Syringaldazine comprises an aromatic structure with pendant hydroxyl groups, which is chemically similar to the indole of a hydroxytryptamine, and ABTS comprises a benzothiazoline, which is chemically similar to the indole of tryptamines generally. Colorimetric assays performed with a syringaldazine or ABTS substrate therefore provide suitable methods to assess laccase activity that are relevant to this disclosure.
as §1, §2, §3

[5] = cited from earlier work; remark: listed apart in the source
[6] = pH of 2.0 relative to pH of 3.0
[7] = pH of 7.0 relative to pH of 6.0
[8] = pH of 3.0 relative to pH of 2.0
[9] = pH of 6.0 relative to pH of 7.0

NCCc1c[nH]c2cccc(O)c12 [4-HT, 3-(2-aminoethyl)-1H-indol-4-ol]
absorbance detected for the hydroxytryptamine (dephosphorylation product) [1, 6]: greater absorbance | absorbance detected for the hydroxytryptamine (dephosphorylation product) [1, 7]: greater absorbance

C[N+](C)(C)CCc1c[nH]c2cccc(O)c12 [4-hydroxy-TMT, [2-(4-hydroxy-1H-indol-3-yl)ethyl]-trimethylazanium]
absorbance detected for the hydroxytryptamine (dephosphorylation product) [1, 6]: greater absorbance | absorbance detected for the hydroxytryptamine (dephosphorylation product) [1, 7]: greater absorbance

O=C(O)Cc1c[nH]c2ccccc12 [Indole-3-acetic acid, indole-3-acetic acid]
solubility in water [2]: insoluble in water

C[N+](C)(C)CCc1c[nH]c2cccc(OP(=O)(O)O)c12 [aeruginascin, [2-(4-phosphonooxy-1H-indol-3-yl)ethyl]-trimethylazanium]
absorbance detected for the phosphoryloxytryptamine [1, 8]: Greater absorbance | absorbance detected for the phosphoryloxytryptamine [1, 9]: Greater absorbance

N.N.O=S(=O)(O)O [ammonium sulfate]
phosphatase enzyme activity in the colorimetric assay [3]: significantly less phosphatase enzyme activity | laccase enzyme activity in the colorimetric assay [4]: significantly less laccase enzyme activity

CNCCc1c[nH]c2cccc(OP(=O)(O)O)c12 [baeocystin, [2-(4-phosphonooxy-1H-indol-3-yl)ethyl]-methylazanium]
absorbance detected for the phosphoryloxytryptamine [1, 8]: Greater absorbance | absorbance detected for the phosphoryloxytryptamine [1, 9]: Greater absorbance

Cl.N=C(N)N [guanidinium, guanidinium chloride]
phosphatase enzyme activity in the colorimetric assay [3]: significantly less phosphatase enzyme activity | laccase enzyme activity in the colorimetric assay [4]: significantly less laccase enzyme activity

NCCc1c[nH]c2cccc(OP(=O)(O)O)c12 [norbaeocystin, 2-(4-phosphonooxy-1H-indol-3-yl)ethylazanium]
absorbance detected for the phosphoryloxytryptamine [1, 8]: Greater absorbance | absorbance detected for the phosphoryloxytryptamine [1, 9]: Greater absorbance

CNCCc1c[nH]c2cccc(O)c12 [norpsilocin, 3-[2-(methylamino)ethyl]-1H-indol-4-ol]
absorbance detected for the hydroxytryptamine (dephosphorylation product) [1, 6]: greater absorbance | absorbance detected for the hydroxytryptamine (dephosphorylation product) [1, 7]: greater absorbance

CCCCCCCCO[C@@H]1O[C@H](CO)[C@@H](O)[C@H](O)[C@H]1O [octyl glucoside, octyl β-D-glucopyranoside]
phosphatase enzyme activity in the colorimetric assay [3]: significantly less phosphatase enzyme activity | laccase enzyme activity in the colorimetric assay [4]: significantly less laccase enzyme activity

CN(C)CCc1c[nH]c2cccc(O)c12 [psilocin, 3-[2-(dimethylamino)ethyl]-1H-indol-4-ol]
absorbance detected for the hydroxytryptamine (dephosphorylation product) [1, 6]: greater absorbance | absorbance detected for the hydroxytryptamine (dephosphorylation product) [1, 7]: greater absorbance

CN(C)CCc1c[nH]c2cccc(OP(=O)(O)O)c12 [psilocybin]
pKa of the azanium of psilocybin ([5]; conjugate acid of the amino): about 10.4 | pKa of the dihydrogen phosphate of psilocybin (lowest pKa) ([5]; first phosphate pKa): about 1.3

CCCCCCCCCCCCOS(=O)(=O)[O-].[Na+] [sodium dodecyl sulfate]
phosphatase enzyme activity in the colorimetric assay [3]: significantly less phosphatase enzyme activity | laccase enzyme activity in the colorimetric assay [4]: significantly less laccase enzyme activity

OCCc1c[nH]c2ccccc12 [tryptophol]
solubility in water [2]: insoluble in water

NC(N)=O [urea]
phosphatase enzyme activity in the colorimetric assay [3]: significantly less phosphatase enzyme activity | laccase enzyme activity in the colorimetric assay [4]: significantly less laccase enzyme activity

Chitin
solubility in water [2]: insoluble in water

polyethylene glycol 4-(2,4,4-trimethylpent-2-yl)phenyl ether [Triton X-100]
phosphatase enzyme activity in the colorimetric assay [3]: significantly less phosphatase enzyme activity | laccase enzyme activity in the colorimetric assay [4]: significantly less laccase enzyme activity
